Source: patent US4652566A, “Benzofuran derivatives, processes for preparing the same and antihypertensive agents containing the same” (Kaken Pharmaceutical Co., Ltd., priority 1984, dated 1987)
Counter-ions that a name gives are not always drawn. Like-named read-outs stand apart in the source and are kept apart here. Values belong to the compound of their own block, whether it stands above or below them.

Columns and labels:
[1] = Antihypertensive effect and effect on heart rate in spontaneously hypertensive rat (SHR); format: in vivo; conditions: po, single dose
Description: [Antihypertensive effect and effect on a heart rate on rat suffering from a spontaneously hypertensive rat (SHR)]
A blood pressure was measured under no anesthetic condition by means of an apparatus for recording a blood pressure of a tail artery and a heart rate (Riken Kaihatsu Co., Ltd.) (PS-802) and at the same time a heart rate was also measured.
Each of test compounds was dissolved or suspended in an aqueous solution containing 5% by weight of acasia and the obtained solution or suspension was administered once orally to SHR which had been kept under a fast condition for one night. A blood pressure and a heart rate were measured before administration and after one hour, three hours, five hours and seven hours of it and the maximum value of changes were calculated by comparing the value measured before administration with the value measured after administration.
For the purpose of a comparison, the same experiment as mentioned above was carried out on both Labetalol and Diltiazem as mentioned above.
With respect to a dosage, 100 mg/kg and 10 mg/kg as to compounds obtained by Examples 2, 5, 6, 9 and 18 to 23 were respectively administered, 100 mg/kg as to compounds obtained by Examples 1, 3, 4, 7 and 10 to 17 was respectively administered.

[2] = target: T1, calcium antagonism (thoracic aorta spiral specimen, contraction by calcium) (Cavia porcellus, UniProt O35505); test: Calcium antagonistic effect (contraction response by calcium of spiral thoracic aorta specimen, Magnus method); design: species or system Hartly male giunea pig; conditions: guinea pig thoracic aorta, antagonism of calcium contraction; for Kb: read-out: Calcium antagonistic effect, pA2 value (converted)
T1 construct: from tissue; host or cells: thoracic aorta spiral strip of male Hartley guinea pig
T1 sequence (O35505 whole entry): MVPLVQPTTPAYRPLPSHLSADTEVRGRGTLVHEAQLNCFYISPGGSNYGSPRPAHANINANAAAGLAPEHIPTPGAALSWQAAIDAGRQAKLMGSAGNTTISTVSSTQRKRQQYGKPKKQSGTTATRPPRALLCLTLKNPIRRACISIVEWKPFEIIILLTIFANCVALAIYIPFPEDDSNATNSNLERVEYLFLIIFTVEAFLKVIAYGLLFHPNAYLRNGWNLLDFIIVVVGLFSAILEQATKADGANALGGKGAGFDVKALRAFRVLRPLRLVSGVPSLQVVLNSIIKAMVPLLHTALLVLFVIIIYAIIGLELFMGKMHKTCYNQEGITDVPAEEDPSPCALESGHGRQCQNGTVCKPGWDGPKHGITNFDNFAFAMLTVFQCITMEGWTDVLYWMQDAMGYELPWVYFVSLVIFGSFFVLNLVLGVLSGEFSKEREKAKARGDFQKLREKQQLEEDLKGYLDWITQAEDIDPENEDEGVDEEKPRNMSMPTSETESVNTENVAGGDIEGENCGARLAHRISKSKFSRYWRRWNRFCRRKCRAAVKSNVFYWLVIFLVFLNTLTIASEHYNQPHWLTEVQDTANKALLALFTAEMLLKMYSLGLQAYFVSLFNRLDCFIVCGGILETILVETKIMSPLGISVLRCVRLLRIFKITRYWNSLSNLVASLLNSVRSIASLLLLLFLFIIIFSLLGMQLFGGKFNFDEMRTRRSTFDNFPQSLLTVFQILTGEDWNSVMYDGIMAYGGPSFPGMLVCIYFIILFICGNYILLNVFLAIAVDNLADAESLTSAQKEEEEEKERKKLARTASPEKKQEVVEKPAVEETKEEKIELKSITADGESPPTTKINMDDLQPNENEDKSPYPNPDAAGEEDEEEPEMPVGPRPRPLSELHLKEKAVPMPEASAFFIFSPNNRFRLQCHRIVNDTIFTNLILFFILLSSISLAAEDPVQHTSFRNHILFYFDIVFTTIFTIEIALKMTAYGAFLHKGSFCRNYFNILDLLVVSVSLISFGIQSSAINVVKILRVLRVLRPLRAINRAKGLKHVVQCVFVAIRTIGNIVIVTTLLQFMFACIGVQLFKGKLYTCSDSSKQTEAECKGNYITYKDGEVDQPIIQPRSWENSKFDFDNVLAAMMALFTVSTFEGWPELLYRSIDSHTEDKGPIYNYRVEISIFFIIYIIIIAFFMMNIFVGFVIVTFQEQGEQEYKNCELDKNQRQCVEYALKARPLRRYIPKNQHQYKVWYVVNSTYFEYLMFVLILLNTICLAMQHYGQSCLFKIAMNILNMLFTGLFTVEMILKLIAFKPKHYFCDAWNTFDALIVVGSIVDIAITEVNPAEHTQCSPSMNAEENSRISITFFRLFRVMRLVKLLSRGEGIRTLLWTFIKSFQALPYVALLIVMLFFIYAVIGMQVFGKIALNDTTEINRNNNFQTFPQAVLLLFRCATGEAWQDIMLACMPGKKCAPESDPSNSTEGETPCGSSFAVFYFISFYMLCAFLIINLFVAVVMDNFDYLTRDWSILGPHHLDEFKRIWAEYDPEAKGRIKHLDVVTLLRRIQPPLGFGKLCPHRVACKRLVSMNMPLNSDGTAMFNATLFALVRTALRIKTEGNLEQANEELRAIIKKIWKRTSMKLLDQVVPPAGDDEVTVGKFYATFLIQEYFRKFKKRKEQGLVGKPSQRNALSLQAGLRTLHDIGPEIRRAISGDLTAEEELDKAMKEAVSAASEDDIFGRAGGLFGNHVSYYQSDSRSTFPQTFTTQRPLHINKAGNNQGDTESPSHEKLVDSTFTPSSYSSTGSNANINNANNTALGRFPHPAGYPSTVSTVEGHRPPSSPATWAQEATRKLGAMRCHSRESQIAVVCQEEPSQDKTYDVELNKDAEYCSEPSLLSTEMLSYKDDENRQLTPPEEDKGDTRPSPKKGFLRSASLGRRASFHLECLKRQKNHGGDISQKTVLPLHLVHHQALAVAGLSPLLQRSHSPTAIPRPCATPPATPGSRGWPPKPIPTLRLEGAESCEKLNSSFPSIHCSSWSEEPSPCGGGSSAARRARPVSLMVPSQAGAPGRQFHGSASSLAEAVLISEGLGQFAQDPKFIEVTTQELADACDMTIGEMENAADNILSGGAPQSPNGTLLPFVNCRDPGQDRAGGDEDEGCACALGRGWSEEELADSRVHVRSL
Description: [Calcium antagonistic effect]
Using a spiral blood vessel specimen taken from a thoracic aorta of Hartly male giunea pig weighed 400 to 600 g, a contraction response by calcium was measured as a dose-response curve according to Magnus method and the antagonistic activity for each test compound was indicated as above-mentioned pA2 value.

[3] = Accute toxicity test (LD50 value); conditions: mouse, in vivo; mice; single oral administration; deaths by seventh day; Litchfield-Wilcoxon
Description: [Accute toxicity test (LD50 value)]
The experiment was carried out using six weeks old ddy male mice.
Each of test compounds was suspended in an aqueous solution containing 5% by weight of acasia and the suspension was administered compulsorily once orally with a gastric probe. Within six hours after the start of the administration, the behavior of tested mice were observed consecutively. Thereafter, the observation was made at an interval of twenty four hours during 7 days and an accumulative number of deaths seventh day since the start of the administration was measured.
LD50 value was calculated according to the Litchfield-Wilcoxon method.

[4] = target: T2, α-adrenergic blockade (vas deferens specimen, contraction by noradrenalin) (Rattus norvegicus, UniProt P43140); test: α-Adrenergic blockade effect (contraction response by noradrenalin of vas deferens specimen, Magnus method); design: species or system Wister male rat
T2 construct: from tissue; host or cells: vas deferens of six-week-old male Wistar rat
T2 sequence (P43140 1-466): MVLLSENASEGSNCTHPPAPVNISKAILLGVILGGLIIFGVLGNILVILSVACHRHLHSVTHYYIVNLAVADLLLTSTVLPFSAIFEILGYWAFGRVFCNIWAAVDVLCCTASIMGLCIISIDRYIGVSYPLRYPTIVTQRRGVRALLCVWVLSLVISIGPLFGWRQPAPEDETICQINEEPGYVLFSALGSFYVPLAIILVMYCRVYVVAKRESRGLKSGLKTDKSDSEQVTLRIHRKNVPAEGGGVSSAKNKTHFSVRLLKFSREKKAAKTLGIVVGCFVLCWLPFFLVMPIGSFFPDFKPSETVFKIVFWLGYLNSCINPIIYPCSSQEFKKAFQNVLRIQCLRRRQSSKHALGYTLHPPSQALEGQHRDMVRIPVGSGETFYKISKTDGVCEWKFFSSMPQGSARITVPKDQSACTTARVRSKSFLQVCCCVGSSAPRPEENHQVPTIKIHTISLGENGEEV

[5] = 10 mg/kg, maximum over 1, 3, 5, 7 hours (Table 2)
[6] = 100 mg/kg, maximum over 1, 3, 5, 7 hours (Table 2)
[7] = 100 mg/kg, maximum over 1, 3, 5, 7 hours (Table 3)
[8] = rat vas deferens, antagonism of noradrenalin contraction, pA2 = negative logarithm of antagonist dose shifting agonist curve two times, read-out: α-Adrenergic blockade effect, pA2 value (converted)
[9] = rat vas deferens, antagonism of noradrenalin contraction, pA2 = negative logarithm of antagonist dose shifting agonist curve two times

Structure (SMILES): COc1ccc([C@@H]2Sc3ccccc3N(CCN(C)C)C(=O)[C@@H]2OC(C)=O)cc1 [Diltiazem, reference compound]
Maximum value of change, heart rate [1, 5]: -140.0 ± 27.5 beats/min
Maximum value of change, systolic pressure [1, 5]: -12.8 ± 5.7 mmHg
Maximum value of change, heart rate [1, 6]: -136.7 ± 34.2 beats/min
Maximum value of change, systolic pressure [1, 6]: -79.9 ± 11.6 mmHg
Maximum value of change, heart rate [1, 7]: -136.7 ± 34.2 beats/min
Maximum value of change, systolic pressure [1, 7]: -79.9 ± 11.6 mmHg

Structure (SMILES): CC(=O)c1cc2cccc(OCC(O)CN3CCN(c4ccccc4)CC3)c2o1 (stereo not shown) [Ex. 1 (HCl salt), 2-acetyl-7-[3-(4-phenylpiperazinyl)-2-hydroxypropoxy]benzofuran]
Kb [2]: 2.95 µM
LD50 at 168 h [3]: > 1000 mg/kg
Maximum value of change, heart rate [1, 7]: -105.8 ± 3.4 beats/min
Maximum value of change, systolic pressure [1, 7]: -74.6 ± 5.6 mmHg
Kb [4, 8]: 0.209 µM

Structure (SMILES): COc1ccccc1N1CCN(CC(O)COc2cccc3cc(C(C)=O)oc23)CC1 (stereo not shown) [Ex. 2, 2-acetyl-7-{2-hydroxy-3-[4-(2-methoxyphenyl)piperazinyl]-propoxy}benzofuran]
LD50 at 168 h [3]: > 1500 mg/kg
Maximum value of change, heart rate [1, 5]: -121.7 ± 15 beats/min
Maximum value of change, systolic pressure [1, 5]: -54.8 ± 11.2 mmHg
Maximum value of change, heart rate [1, 6]: -155.6 ± 15.5 beats/min
Maximum value of change, systolic pressure [1, 6]: -72.4 ± 8.9 mmHg

Structure (SMILES): COc1ccc(N2CCN(CC(O)COc3cccc4cc(C(C)=O)oc34)CC2)cc1 (stereo not shown) [Ex. 3 (HCl salt), 2-acetyl-7-{2-hydroxy-3-[4-(4-methoxyphenyl)piperazinyl]-propoxy}benzofuran]
Kb [2]: 0.631 µM
LD50 at 168 h [3]: 700 mg/kg
Maximum value of change, heart rate [1, 7]: -200.0 ± 28.4 beats/min
Maximum value of change, systolic pressure [1, 7]: -22.9 ± 1.7 mmHg
Kb [4, 8]: 0.457 µM

Structure (SMILES): COc1ccccc1N1CCN(CC(O)COc2ccc3cc(C(C)=O)oc3c2)CC1 (stereo not shown) [Ex. 4 (HCl salt), 2-acetyl-6-{2-hydroxy-3-[4-(2-methoxyphenyl)piperazinyl]-propoxy}benzofuran]
Kb [2]: 0.525 µM
LD50 at 168 h [3]: > 1000 mg/kg
Maximum value of change, heart rate [1, 7]: -172.5 ± 23.9 beats/min
Maximum value of change, systolic pressure [1, 7]: -114.2 ± 1.7 mmHg
Kb [4, 8]: 0.0224 µM

Structure (SMILES): COc1ccccc1N1CCN(CC(O)COc2ccc3oc(C(C)=O)cc3c2)CC1 (stereo not shown) [Ex. 5]
Maximum value of change, heart rate [1, 5]: -49.2 ± 28.0 beats/min
Maximum value of change, systolic pressure [1, 5]: -56.3 ± 6.0 mmHg
Maximum value of change, heart rate [1, 6]: -143.4 ± 34.2 beats/min
Maximum value of change, systolic pressure [1, 6]: -101.3 ± 5.2 mmHg

Structure (SMILES): CC(=O)c1cc2cccc(OCC(O)CN3CCN(c4ccccc4C)CC3)c2o1 (stereo not shown) [Ex. 6 (HCl salt), 2-acetyl-7-{2-hydroxy-3-[4-(2-methylphenyl)-piperazinyl]propoxy}benzofuran]
Kb [2]: 0.468 µM
LD50 at 168 h [3]: > 1500 mg/kg
Kb [4, 8]: 0.0447 µM

Structure (SMILES): CC(=O)c1cc2cccc(OCC(O)CN3CCN(c4ccccc4C)CC3)c2o1 (stereo not shown) [Ex. 6, 2-acetyl-7-{2-hydroxy-3-[4-(2-methylphenyl)-piperazinyl]propoxy}benzofuran]
Maximum value of change, heart rate [1, 5]: -70.0 ± 20.3 beats/min
Maximum value of change, systolic pressure [1, 5]: -71.7 ± 4.9 mmHg
Maximum value of change, heart rate [1, 6]: -135.8 ± 17.0 beats/min
Maximum value of change, systolic pressure [1, 6]: -90.3 ± 9.2 mmHg

Structure (SMILES): CC(=O)c1cc2cc(OCC(O)CN3CCN(c4ccccc4C)CC3)ccc2o1 (stereo not shown) [Ex. 7 (HCl salt)]
Kb [2]: 0.631 µM
LD50 at 168 h [3]: > 2000 mg/kg
Kb [4, 8]: 0.219 µM

Structure (SMILES): CC(=O)c1cc2cc(OCC(O)CN3CCN(c4ccccc4C)CC3)ccc2o1 (stereo not shown) [Ex. 7]
Maximum value of change, heart rate [1, 5]: -45.0 ± 17.2 beats/min
Maximum value of change, systolic pressure [1, 5]: -86.4 ± 8.6 mmHg
Maximum value of change, heart rate [1, 6]: -51.3 ± 20.2 beats/min
Maximum value of change, systolic pressure [1, 6]: -117.5 ± 12.6 mmHg

Structure (SMILES): CCOC(=O)c1cc2cccc(OCC(O)CN3CCN(c4ccccc4OC)CC3)c2o1 (stereo not shown) [Ex. 18 (HCl salt), 2-ethoxycarbonyl-7-{2-hydroxy-3-[4-(2-methoxyphenyl)-piperazinyl]propoxy}benzofuran]
Kb [2]: 0.209 µM
LD50 at 168 h [3]: > 1000 mg/kg
Kb [4, 8]: 0.0741 µM

Structure (SMILES): CCOC(=O)c1cc2cccc(OCC(O)CN3CCN(c4ccccc4OC)CC3)c2o1 (stereo not shown) [Ex. 18, 2-ethoxycarbonyl-7-{2-hydroxy-3-[4-(2-methoxyphenyl)-piperazinyl]propoxy}benzofuran]
Maximum value of change, heart rate [1, 5]: -96.7 ± 35.1 beats/min
Maximum value of change, systolic pressure [1, 5]: -35.8 ± 4.6 mmHg
Maximum value of change, heart rate [1, 6]: -138.3 ± 25.4 beats/min
Maximum value of change, systolic pressure [1, 6]: -65.1 ± 5.5 mmHg

Structure (SMILES): CCOC(=O)c1cc2cc(OCC(O)CN3CCN(c4ccccc4OC)CC3)ccc2o1 (stereo not shown) [Ex. 19 (HCl salt), 2-ethoxycarbonyl-5-{2-hydroxy-3-[4-(2-methoxyphenyl)piperrazinyl]propoxy}benzofuran]
Calcium antagonistic effect, pA2 value [2]: 5.28 ± 0.14
LD50 at 168 h [3]: > 1500 mg/kg
α-Adrenergic blockade effect, pA2 value [4, 9]: 6.72 ± 0.03

Structure (SMILES): CCOC(=O)c1cc2cc(OCC(O)CN3CCN(c4ccccc4OC)CC3)ccc2o1 (stereo not shown) [Ex. 19, 2-ethoxycarbonyl-5-{2-hydroxy-3-[4-(2-methoxyphenyl)piperrazinyl]propoxy}benzofuran]
Maximum value of change, heart rate [1, 5]: -68.4 ± 45.1 beats/min
Maximum value of change, systolic pressure [1, 5]: -37.6 ± 9.0 mmHg
Maximum value of change, heart rate [1, 6]: -73.4 ± 19.6 beats/min
Maximum value of change, systolic pressure [1, 6]: -60.1 ± 10.8 mmHg

Structure (SMILES): CCOC(=O)c1cc2cc(OCC(O)CN3CCN(c4ccccc4C)CC3)ccc2o1 (stereo not shown) [Ex. 20 (HCl salt), 2-ethoxycarbonyl-5-{2-hydroxy-3-[4-(2-methylphenyl)-piperazinyl]propoxy}benzofuran]
Calcium antagonistic effect, pA2 value [2]: 4.88 ± 0.70
LD50 at 168 h [3]: > 1500 mg/kg
α-Adrenergic blockade effect, pA2 value [4, 9]: 6.46 ± 0.09

Structure (SMILES): CCOC(=O)c1cc2cc(OCC(O)CN3CCN(c4ccccc4C)CC3)ccc2o1 (stereo not shown) [Ex. 20, 2-ethoxycarbonyl-5-{2-hydroxy-3-[4-(2-methylphenyl)-piperazinyl]propoxy}benzofuran]
Maximum value of change, heart rate [1, 5]: -81.1 ± 22.2 beats/min
Maximum value of change, systolic pressure [1, 5]: -57.5 ± 12.5 mmHg
Maximum value of change, heart rate [1, 6]: -87.5 ± 17.7 beats/min
Maximum value of change, systolic pressure [1, 6]: -80.7 ± 13.6 mmHg

Structure (SMILES): COc1ccccc1N1CCN(CC(O)COc2cccc3cc(C(=O)O)oc23)CC1 (stereo not shown) [Ex. 21 (HCl salt), 2-carboxy-7-{2-hydroxy-3-[4-(2-methoxyphenyl)piperazinyl]propoxy}benzofuran]
Kb [2]: 3.31 µM
LD50 at 168 h [3]: > 1000 mg/kg
Kb [4, 8]: 0.355 µM

Structure (SMILES): COc1ccccc1N1CCN(CC(O)COc2cccc3cc(C(=O)O)oc23)CC1 (stereo not shown) [Ex. 21, 2-carboxy-7-{2-hydroxy-3-[4-(2-methoxyphenyl)piperazinyl]propoxy}benzofuran]
Maximum value of change, heart rate [1, 5]: -5.8 ± 8.7 beats/min
Maximum value of change, systolic pressure [1, 5]: -46.9 ± 6.3 mmHg
Maximum value of change, heart rate [1, 6]: -25.7 ± 16.4 beats/min
Maximum value of change, systolic pressure [1, 6]: -73.8 ± 9.9 mmHg

Kb [4]: 1.51 µM
Structure (SMILES): CC(CCc1ccccc1)NCC(O)c1ccc(O)c(C(N)=O)c1 (stereo not shown) [Labetalol, reference compound]
Maximum value of change, heart rate [1, 5]: -122.5 ± 37.5 beats/min
Maximum value of change, systolic pressure [1, 5]: -32.9 ± 12.9 mmHg
Maximum value of change, heart rate [1, 6]: -125.2 ± 25.6 beats/min
Maximum value of change, systolic pressure [1, 6]: -55.0 ± 9.1 mmHg
Maximum value of change, heart rate [1, 7]: -125.2 ± 25.6 beats/min
Maximum value of change, systolic pressure [1, 7]: -55.0 ± 9.1 mmHg
